# Test results from US20250345468A1, “COMBINATION TREATMENT OF SMALL-CELL LUNG CANCER” (ITM ISOTOPE TECHNOLOGIES MUNICH SE, priority 2022, published 2025).
# Assays:
# [1] = test system: H69 SCLC cells; assay: Tumor growth delay and survival, H69 xenograft mouse model; conditions: PARP inhibitor alone
# Description: H446 (FIG. 5) or H69 (FIG. 6) SCLC cells were subcutaneously inoculated in athymic nude mice to establish xenograft mouse models (injection of about 2 mio. cells in 200 μl Medium/Matrigel (1:1). Tumor volume and body weight were monitored daily during the study period. The differences of the initial tumor volume and the body weight of the mice of each treatment arm were negligible. The animals were treated with either PARP inhibitor alone or ^177Lu-DOTATOC alone, or with a combination of PARP inhibitor and of ^177Lu-DOTATOC. The onset of the treatment was at day 19 (H446 model) or at day 11 (H69 model) (administration of the PARP inhibitor), respectively. These groups were compared to an untreated control group. While the radiopharmaceutical was administered to the animals only once, the animals were treated with PARP inhibitor in two cycles of five days each (10 mg/kg in 200 μl PBS i.p.) at days 19 to 23 and 26 to 30 or at days 11 to 15 and 18 to 22, respectively. The treatment was interrupted for two days after the end of the first PARP inhibitor treatment cycle. ^177Lu-DOTATOC (40 MBq, 223 MBq/nmol) was administered in the middle of the first PARP inhibitor treatment cycle (at day 21 or at day 13, respectively). Study endpoint was a tumor size exceeding 15 mm in each dimension.
# [2] = test system: H446 cells; assay: Cell viability (IC50) assay in H446 SCLC cells; format: cell-based, human
# Description: FIG. 1A: H446 and H69 cells treated with increasing concentrations of Rucaparib. […] (IC50 values: ^177Lu-DOTA-TOC: 8.9 kBq, ^177Lu-DOTATOC and 5 μM Rucaparib: 0.9 kBq, ^177LU-DOTATOC and 20 μM Rucaparib; 0.4 kBq)
# (§1) FIG. 1A). […] At such concentrations, neither Rucaparib nor ^177Lu-DOTATOC, respectively, alone have any major impact on cell viability. The activity required for ^177Lu-DOTATOC to reduce cell viability to 50% by H446 cells in the combination treatment was reduced by a factor of 10 (5 μM Rucaparib) to 22 (20 μM Rucaparib).
# (§2) Further evidence for such a synergistic effect was collected by analogous viability assays employing other PARP inhibitors, such as Olaparib and Talazoparib, in combination with ^177Lu-DOTATOC. The applied PARP inhibitor concentrations for combination therapy was adjusted depending on their individual cytotoxicity. […] That finding was proven in all cell lines.
# [3] = test system: H69 cells; assay: Cell viability (IC50) assay in H69 SCLC cells; format: cell-based, human
# Text: FIG. 3A: Determination of the IC50 values of Rucaparib in the H446 and H69 cell lines. FIG. 3B: H446, FIG. 3C: H69 cell lines. Cell viability was studied upon combined cell treatment with Olaparib and ^177Lu-DOTA-TOC vs. ^177Lu-DOTA-TOC alone.
# as §1, §2
# [4] = test system: PARP; conditions: cited from earlier work
# [5] = test system: SSTR2; assay: in vivo; set-up: species or system athymic nude mice; conditions: athymic nude, mouse, 10 MBq
# Description: (§3) H446 and H69 as SSTR2 expressing SCLC cell lines were subcutaneously inoculated into mice to establish a mouse xenograft model. The results were obtained from PET scans. […] By control experiments, the tumors were blocked with non-radioactive (non-labelled) DOTATOC (octreotide) for comparative reasons (“w/Block”).
# (§4) Tumor accumulation of ^68Ga-DOTATOC (10 MBq) was evaluated in SCLC xenograft mouse model by subcutaneous inoculation of 2-3 mio SSTR2 expressing H446 and H69 cells, respectively, into athymic nude mice. The results (obtained from PET scans) shown in FIG. 8 reveal a visible uptake of ^68Ga-DOTATOC in the tumor after 4 hours p.i.
# [6] = test system: SSTR2 expressing H69 cells; assay: in vivo; set-up: species or system athymic nude mice; conditions: mouse
# Description: as §3, §4
# [7] = test system: SSTR2; assay: in vivo; set-up: species or system athymic nude mice; conditions: athymic nude, mouse, 10 MBq; remark: listed apart in the source
# Description: as §3, §4
smiles,measurement,setting,value
O=C(c1cc(Cc2n[nH]c(=O)c3ccccc23)ccc1F)N1CCN(C(=O)C2CC2)CC1 [Olaparib],Anti-cancer effect of single therapy,[1],did not result in major anti-cancer effects
CNCc1ccc(-c2[nH]c3cc(F)cc4c3c2CCNC4=O)cc1 [Rucaparib],Anti-cancer effect of single therapy,[1],did not result in major anti-cancer effects
same,Cell viability,[2]; 20 μM Rucaparib alone,slightly reduced
same,IC50,"[2]; Homo sapiens, NCI-H446, Rucaparib alone",32 µM
same,Cell viability,[3]; 20 μM Rucaparib alone,slightly reduced
same,IC50,"[3]; Homo sapiens, NCI-H69, Rucaparib alone",36 µM
Cn1ncnc1[C@H]1c2n[nH]c(=O)c3cc(F)cc(c23)N[C@@H]1c1ccc(F)cc1 [Talazoparib],Potency relative to olaparib,[4],about 100 times
"C[C@@H](O)[C@@H]1NC(=O)[C@H](CCCCN)NC(=O)[C@@H](Cc2c[nH]c3ccccc23)NC(=O)[C@H](Cc2ccc(O)cc2)NC(=O)[C@@H](NC(=O)[C@@H](Cc2ccccc2)NC(=O)CN2CCN(CC(=O)O)CCN(CC(=O)O)CCN(CC(=O)O)CC2)CSSC[C@@H](C(=O)N[C@H](CO)[C@@H](C)O)NC1=O [^68Ga-DOTATOC, ^68Ga-DOTA-D-Phe-cyclo(Cys-Tyr-D-Trp-Lys-Thr-Cys)Thr(ol), metal not drawn]",tissue uptake at 4 h,[5],1 to 3 %ID/g
same,Uptake in H69 cells relative to H446 cells,[6],~2 fold
same,tissue uptake at 4 h,[7],1 to 3 %ID/g
